Converted amounts (≈) assume the structure as drawn. Each block holds one compound with its values, some of them ahead of it. The source made the active and inactive calls. The rule behind the calls is not given here.
How the values were obtained:
[1] = target: T1, P2Y purinoceptor 14 (Homo sapiens, UniProt Q15391); assay: Antagonist activity at human P2Y14R stably expressed in human forskolin treated THP1 cells assessed as reduction in P2Y14R agonist UDPG-induced inhibition of cAMP production incubated for 15 mins by competitive enzyme-linked immunoassay; format: functional, cell-based
T1 sequence (Q15391 whole entry): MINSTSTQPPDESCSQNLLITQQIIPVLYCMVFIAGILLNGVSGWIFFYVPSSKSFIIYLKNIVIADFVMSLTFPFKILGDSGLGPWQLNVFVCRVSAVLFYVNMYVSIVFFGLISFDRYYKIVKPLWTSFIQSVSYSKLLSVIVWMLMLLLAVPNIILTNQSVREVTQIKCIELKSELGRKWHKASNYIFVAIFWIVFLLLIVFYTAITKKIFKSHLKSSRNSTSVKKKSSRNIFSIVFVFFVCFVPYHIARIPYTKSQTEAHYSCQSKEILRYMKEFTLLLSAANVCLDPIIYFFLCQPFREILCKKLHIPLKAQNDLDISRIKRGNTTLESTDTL

[2] = test system: THP-1; assay: Inhibition of inflammasome in human THP1 cells assessed as reversal of MSU-induced increase in caspase1 p20 protein level at 10 uM pretreated for 1 hr followed by MSU treatment and measured after 12 hrs by Western blot analysis; format: functional, cell-based
[3] = test system: THP-1; assay: Inhibition of inflammasome in human THP1 cells assessed as reversal of MSU-induced co-localization of NLRP3 at 10 uM pretreated for 1 hr followed by MSU treatment and measured after 12 hrs by DAPI staining based confocal laser scanning microscopic method; format: functional, cell-based
[4] = test system: THP-1; assay: Inhibition of pyroptosis in human THP1 cells assessed as inhibition of MSU-induced increase in caspase1 level at 10 uM pretreated for 1 hr followed by MSU treatment and measured after 12 hrs by PI staining based flow cytometric analysis; format: functional, cell-based
[5] = test system: THP-1; assay: Inhibition of inflammasome in human THP1 cells assessed as reversal of MSU-induced increase in NLRP3 protein level at 10 uM pretreated for 1 hr followed by MSU treatment and measured after 12 hrs by Western blot analysis; format: functional, cell-based
[6] = test system: THP-1; assay: Inhibition of inflammasome in human THP1 cells assessed as reversal of MSU-induced increase in ASC protein level at 10 uM pretreated for 1 hr followed by MSU treatment and measured after 12 hrs by Western blot analysis; format: functional, cell-based
[7] = test system: THP-1; assay: Inhibition of pyroptosis in human THP1 cells assessed as inhibition of MSU-induced increase in IL-1beta level at 10 uM by ELISA; format: functional, cell-based
[8] = Solubility of compound in pH 7.4 PBS buffer vortex for 1 min followed by 10 mins sonication and further incubated for overnight under shaking condition by UV-vis absorption spectrometric method; format: physicochemical
[9] = test system: THP-1; assay: Inhibition of inflammasome in human THP1 cells assessed as reversal of MSU-induced increase in NLRP3 protein level at 5 to 20 uM pretreated for 1 hr followed by MSU treatment and measured after 12 hrs by Western blot analysis; format: functional, cell-based
[10] = Microsomal stability in human liver microsomes assessed as parent compound remaining at 20 uM measured for 10 to 120 mins in presence of NADPH by LC-MS/MS analysis; format: ADME, Microsome
[11] = Ratio of solubility for test compound to solubility for PPTN; format: physicochemical
[12] = test system: THP-1; assay: Inhibition of inflammasome in human THP1 cells assessed as reversal of MSU-induced increase in ASC protein level at 5 to 20 uM pretreated for 1 hr followed by MSU treatment and measured after 12 hrs by Western blot analysis; format: functional, cell-based
[13] = test system: THP-1; assay: Inhibition of pyroptosis in human THP1 cells assessed as inhibition of MSU-induced increase in IL-1beta level at 5 to 20 uM by ELISA; format: functional, cell-based
[14] = Microsomal stability in rat liver microsomes assessed as parent compound remaining at 20 uM measured for 10 to 120 mins in presence of NADPH by LC-MS/MS analysis; format: ADME, Microsome
[15] = test system: THP-1; assay: Inhibition of inflammasome in human THP1 cells assessed as reversal of MSU-induced co-localization of NLRP3 at 5 to 20 uM pretreated for 1 hr followed by MSU treatment and measured after 12 hrs by DAPI staining based confocal laser scanning microscopic method; format: functional, cell-based
[16] = target: T2, P2Y purinoceptor 14 (Homo sapiens) (UniProt Q15391); assay: Inhibition of P2Y14 in human THP1 cells assessed as reversal of MSU-induced reduction in cAMP production at 5 to 20 uM pretreated for 1 hr followed by MSU treatment and measured after 12 hrs by ELISA; format: functional, cell-based
T2 sequence (whole entry): T1 sequence (Q15391 whole entry)

[17] = test system: THP-1; assay: Inhibition of pyroptosis in human THP1 cells assessed as inhibition of MSU-induced increase in caspase1 level at 5 to 20 uM pretreated for 1 hr followed by MSU treatment and measured after 12 hrs by PI staining based flow cytometric analysis; format: functional, cell-based
[18] = test system: THP-1; assay: Inhibition of inflammasome in human THP1 cells assessed as reversal of MSU-induced increase in caspase1 p20 protein level at 5 to 20 uM pretreated for 1 hr followed by MSU treatment and measured after 12 hrs by Western blot analysis; format: functional, cell-based

- IC50 [1]: 4.54 nM
SMILES: N#Cc1ccc(C(=O)Nc2cc(C(=O)O)cc(-c3ccc(C4CCNCC4)cc3)c2)cc1

- IC50 [1]: 4.35 nM
SMILES: O=C(O)c1cc(NC(=O)c2cnccn2)cc(-c2ccc(C3CCNCC3)cc2)c1

- IC50 [1]: 5.06 nM
SMILES: O=C(O)c1cc(NC(=O)c2ccc([N+](=O)[O-])cc2)cc(-c2ccc(C3CCNCC3)cc2)c1

- solubility thermodynamic [8]: < 5 µg/mL
SMILES: O=C(O)c1cc(-c2ccc(C3CCNCC3)cc2)c2ccc(-c3ccc(C(F)(F)F)cc3)cc2c1 [PPTN]
- inhibition [2]: Active
- inhibition [3]: Active
- inhibition [4]: Active
- inhibition [5]: Active
- inhibition [6]: Active
- inhibition [7]: Active

- IC50 [1]: 3.17 nM
SMILES: O=C(O)c1cc(NC(=O)c2ccncc2)cc(-c2ccc(C3CCNCC3)cc2)c1

- half-life at 20 µM [10]: > 1 h
- Ratio [11]: > 100
- IC50 [1]: 1.77 nM
- half-life at 20 µM [14]: > 1 h
- inhibition [16]: Active
- solubility thermodynamic [8]: 572 µg/mL (≈ 1380 µM)
SMILES: Cc1ccc(C(=O)Nc2cc(C(=O)O)cc(-c3ccc(C4CCNCC4)cc3)c2)cc1
- inhibition [9]: Active
- inhibition [12]: Active
- inhibition [13]: Active
- inhibition [15]: Active
- inhibition [17]: Active
- inhibition [18]: Active

- IC50 [1]: 4.95 nM
SMILES: O=C(O)c1cc(NC(=O)c2ccccc2)cc(-c2ccc(C3CCNCC3)cc2)c1

Source: ChEMBL document CHEMBL4359861, “Design, synthesis and anti-inflammatory evaluation of 3-amide benzoic acid derivatives as novel P2Y14 receptor antagonists” (Eur J Med Chem, 2019)
